The assay concerns the target T1, CFTR (Homo sapiens, UniProt P13569, DEL508-508).
T1 construct: endogenous in cells; host or cells: primary human bronchial epithelial cells from CF subjects (F508del/MF-HBE), differentiated at air-liquid interface
Description: HBE assay: Ussing chamber assay of CFTR-mediated short-circuit currents. Type of assay: cell-based. Conditions: for pEC50: read-out: HBE EC50; for activation at 10 µM: read-out: HBE Activity at 10 μM (%). Summed up: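 CFTR-mediated Isc (μA/cm²) equals the peak response to apical 20 μM forskolin minus the residual after a 20 μM each BPO/GlyH-101/CFTR inhibitor 172 cocktail, recorded in Ussing chambers at Vhold 0 mV, 37 °C, pH 7.4, with 30 μM apical amiloride. Cells were F508del/MF HBE cultures preincubated 18-24 h with corrector (concentration range or 10 μM) plus 1 μM ivacaftor in 20% human serum.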

[1] abbreviates: Table 11, read-out: HBE Max Activity (%).
[2] abbreviates: Table 13, read-out: HBE Max Activity (%).
Where [3] appears, read: Table 12, read-out: HBE Max Activity (%).
Setting [4] is: HBE assay, read-out: HBE Max activity (%).

pEC50: −log10 of the molar value. Read-outs that look alike come from different tables or passages of the source.

What is called pEC50 is −log10 of the EC50, conventionally taken in molar units.

T1 sequence (P13569 with tags, fused parts or gaps DEL508-508): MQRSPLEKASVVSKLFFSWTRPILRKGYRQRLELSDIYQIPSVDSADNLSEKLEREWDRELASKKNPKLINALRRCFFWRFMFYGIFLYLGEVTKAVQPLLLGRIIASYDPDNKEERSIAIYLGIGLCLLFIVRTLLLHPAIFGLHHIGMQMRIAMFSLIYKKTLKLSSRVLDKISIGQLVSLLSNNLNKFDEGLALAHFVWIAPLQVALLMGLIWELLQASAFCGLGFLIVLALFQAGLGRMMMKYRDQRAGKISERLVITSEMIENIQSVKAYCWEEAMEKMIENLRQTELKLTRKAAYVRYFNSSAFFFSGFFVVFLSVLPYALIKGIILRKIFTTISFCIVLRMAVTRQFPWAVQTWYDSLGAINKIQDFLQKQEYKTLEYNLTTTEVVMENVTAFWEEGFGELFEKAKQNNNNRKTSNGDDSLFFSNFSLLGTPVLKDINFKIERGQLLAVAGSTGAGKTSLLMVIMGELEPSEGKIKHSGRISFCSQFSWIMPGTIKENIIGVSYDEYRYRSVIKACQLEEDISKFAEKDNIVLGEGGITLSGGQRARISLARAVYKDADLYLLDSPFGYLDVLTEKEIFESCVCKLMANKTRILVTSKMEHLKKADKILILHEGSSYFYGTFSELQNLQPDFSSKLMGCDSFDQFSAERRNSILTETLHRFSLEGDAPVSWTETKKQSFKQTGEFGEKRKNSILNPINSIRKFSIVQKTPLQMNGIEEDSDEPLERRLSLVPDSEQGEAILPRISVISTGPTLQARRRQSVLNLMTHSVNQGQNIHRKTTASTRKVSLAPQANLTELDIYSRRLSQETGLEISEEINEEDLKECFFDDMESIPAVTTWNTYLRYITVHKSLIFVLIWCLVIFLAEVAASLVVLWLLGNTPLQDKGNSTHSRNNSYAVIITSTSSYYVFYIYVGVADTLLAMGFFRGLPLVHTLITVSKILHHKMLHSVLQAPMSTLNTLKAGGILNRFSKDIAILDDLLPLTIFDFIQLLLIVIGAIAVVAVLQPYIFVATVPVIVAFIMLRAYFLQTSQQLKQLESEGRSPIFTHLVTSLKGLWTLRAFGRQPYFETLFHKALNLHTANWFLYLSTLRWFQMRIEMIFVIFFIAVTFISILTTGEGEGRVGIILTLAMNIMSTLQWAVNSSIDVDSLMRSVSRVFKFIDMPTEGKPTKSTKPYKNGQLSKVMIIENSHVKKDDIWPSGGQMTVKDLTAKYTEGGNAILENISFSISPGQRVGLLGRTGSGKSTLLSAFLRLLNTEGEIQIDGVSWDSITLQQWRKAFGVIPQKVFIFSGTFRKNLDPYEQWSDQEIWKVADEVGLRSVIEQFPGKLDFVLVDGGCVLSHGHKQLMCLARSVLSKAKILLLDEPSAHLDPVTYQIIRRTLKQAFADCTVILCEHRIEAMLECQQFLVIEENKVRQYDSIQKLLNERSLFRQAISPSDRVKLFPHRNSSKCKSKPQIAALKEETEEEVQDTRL

`Cc1cccc(C)c1-c1cc2nc(n1)NS(=O)(=O)c1cccc(c1)C(=O)N(Cc1ncc(N3CCC(C)CC3)cn1)[C@H](CC(C)(C)C)CO2` [Compound 719]: the pEC50 (Table 11) was more than 6.00. Also, the Emax under setting [1] was more than 60%.

Regarding `COCCN(c1cccc(CN2C(=O)c3cccc(n3)S(=O)(=O)Nc3nc(cc(-c4c(C)cccc4C)n3)OC[C@H]2CC(C)(C)C)n1)C(C)C` [Compound 1142], the pEC50 (Table 13) is 5.52 to 6.00. The Emax under setting [2] is more than 60%.

`Cc1cccc(C)c1-c1cc2nc(n1)NS(=O)(=O)c1cccc(c1)C(=O)N(Cc1ccc(N(C)CC(C)(C)C)cn1)[C@H](CC(C)(C)C)CO2` [Compound 497]: the pEC50 (Table 10) was 5.52 to 6.00. Further, the Emax (Table 10, read-out: HBE Max activity (%)) was more than 60%.

For the compound `COCCN1CCC(CN2C(=O)c3cccc(c3)S(=O)(=O)Nc3nc(cc(-c4c(C)cccc4C)n3)OC[C@H]2CC(C)(C)C)C1=O` (stereo partly drawn) [Compound 639], where the note is “Table 11”, the pEC50 is more than 6.00. Further, the Emax under setting [1] was more than 60%.

As for `Cc1cccc(C)c1-c1cc2nc(n1)NS(=O)(=O)c1cccc(c1)C(=O)N(Cc1ncccc1N(C)CC(C)(C)C)[C@H](CC(C)(C)C)CO2` [Compound 725], the pEC50 (Table 11) was more than 6.00. The Emax under setting [1] was more than 60%.

For `Cc1cccc(C)c1-c1cc2nc(n1)NS(=O)(=O)c1cccc(c1)C(=O)N(Cc1ncc(OC3CCC3)cn1)[C@H](CC(C)(C)C)CO2` [Compound 558], the pEC50 (Table 12) was more than 6.00. In addition, the Emax under setting [3] is more than 60%.

For `Cc1cccc(C)c1-c1cc2nc(n1)NS(=O)(=O)c1cccc(n1)C(=O)N(Cc1ncc(OC(C)C)cn1)[C@H](CC(C)(C)C)CO2` [Compound 1128], the pEC50 (Table 13) is more than 6.00. For the same compound, the Emax under setting [2] was more than 60%.

Turning to `CO[C@H](C)[C@@H]1CCCN1c1cncc(CN2C(=O)c3cccc(c3)S(=O)(=O)Nc3nc(cc(-c4c(C)cccc4C)n3)OC[C@H]2CC(C)(C)C)n1` [Compound 1451], the pEC50 (HBE assay) is more than 6.00. Also, the Emax under setting [4] is more than 60%.

Turning to `Cc1cccc(C)c1-c1cc2nc(n1)NS(=O)(=O)c1cccc(c1)C(=O)N(Cc1nccc(N(C)C34CC(C3)C4)n1)[C@H](CC(C)(C)C)CO2` [Compound 447], the activation at 10 µM (Table 12) was more than 600%.

Consider `Cc1cnc(CN2C(=O)c3cccc(c3)S(=O)(=O)Nc3nc(cc(-c4c(C)cccc4C)n3)OC[C@H]2CC(C)(C)C)nc1N(C)C(C)C` [Compound 330], for which the activation at 10 µM (Table 12) is more than 600%.

With `Cc1cccc(C)c1-c1cc2nc(n1)NS(=O)(=O)c1cccc(c1)C(=O)N(Cc1ncc(C3CC3)cn1)[C@H](CC(C)(C)C)CO2` [Compound 642], for the setting “Table 11”, the pEC50 is 5.52 to 6.00. Besides, under setting [1], the Emax was more than 60%.

On to `Cc1cccc(C)c1-c1cc2nc(n1)NS(=O)(=O)c1cccc(c1)C(=O)N(CC(=O)N1CCc3ccccc3C1)[C@H](CC(C)(C)C)CO2` [Compound 207], for which, under “Table 13”, the activation at 10 µM was more than 600%.

Take `Cc1cccc(C)c1-c1cc2nc(n1)NS(=O)(=O)c1cccc(c1)C(=O)N(Cc1coc(N3CCOCC3)n1)[C@H](CC(C)(C)C)CO2` [Compound 1358]: where the note is “HBE assay”, the pEC50 was more than 6.00. In addition, under setting [4], the Emax was more than 60%.

As for `Cc1cccc(C)c1-c1cc2nc(n1)NS(=O)(=O)c1cccc(c1)C(=O)N(Cc1ncc(OCC(C)(C)C)cn1)[C@H](CC(C)(C)C)CO2` [Compound 567], the pEC50 (Table 12) is more than 6.00. For the same compound, the Emax under setting [3] was more than 60%.

Turning to `Cc1cccc(C)c1-c1cc2nc(n1)NS(=O)(=O)c1cccc(c1)C(=O)N(Cc1nc(N(C)CC(C)(C)C)ccc1C(F)(F)F)[C@H](CC(C)(C)C)CO2` [Compound 457], the pEC50 (Table 12) is more than 6.00. The Emax under setting [3] was more than 60%.

For the compound `Cc1cccc(C)c1-c1cc2nc(n1)NS(=O)(=O)c1cccc(c1)C(=O)N(Cc1nccc(N(C)CC(C)(C)C)c1F)[C@H](CC(C)(C)C)CO2` [Compound 1155], for the setting “Table 13”, the pEC50 was 5.52 to 6.00. Also, the Emax under setting [2] was more than 60%.

In the case of `Cc1cccc(C)c1-c1cc2nc(n1)NS(=O)(=O)c1cccc(c1)C(=O)N(Cc1cncc(N(C)C3CCC34CCC4)n1)[C@H](CC(C)(C)C)CO2` (stereo partly drawn) [Compound 438], the pEC50 (Table 12) was more than 6.00.
